{"source": "paper PMC9592870", "about": "(Molecular Diversity, 2022)"}
{"test_system": "DR-Mtb strains", "experiment": "microbe, parasite or virus in culture", "type": "cell-based", "conditions": "Mycobacterium tuberculosis, read-out: MIC against all DR-Mtb strains", "units": {"MIC": "mg/L"}}
{"compound": "COC(=O)c1cc(-c2cccc(NC(=O)Nc3ccc(Cl)c(Cl)c3)c2)on1", "note": "[4t, Methyl 5-(3-(3-(3,4-dichlorophenyl)ureido)phenyl)isoxazole-3-carboxylate]", "MIC": "0.5 to 4"}
{"compound": "COC(=O)c1cc(-c2ccc(NC(=O)Nc3ccc(Cl)c(Cl)c3)cc2)on1", "note": "[4tb, Methyl 5-(4-(3-(3,4-dichlorophenyl)ureido)phenyl)isoxazole-3-carboxylate]", "MIC": "1 to 4"}
{"compound": "COC(=O)c1cc(-c2cccc(NC(=S)Nc3ccc(Cl)cc3)c2)on1", "note": "[5f, Methyl 5-(3-(3-(4-chlorophenyl)thioureido)phenyl)isoxazole-3-carboxylate]", "MIC": "0.5 to 4"}
